Assay results: article PMC8508694, “Insights into the Genetic Variations of Human Cytochrome P450 2C9: Structural Analysis, Characterization and Comparison” (International Journal of Molecular Sciences, 2021)

Assays:
[1] = molecular target: T1, CYP2C9*8 (Homo sapiens, UniProt P11712, R150H/V490I); assay: ([…] Å) and ITC; format: binding
T1 construct: residues 1 to 23 (N-terminal transmembrane anchor) replaced with MAKKT, V490I, C-terminal four-histidine tag

[2] = molecular target: T2, CYP2C9*3 (Homo sapiens, UniProt P11712, I359L/V490I); assay: ITC; format: binding
T2 construct: residues 1 to 23 (N-terminal transmembrane anchor) replaced with MAKKT, V490I, C-terminal four-histidine tag
T2 sequence (P11712 24-490 I359L/V490I): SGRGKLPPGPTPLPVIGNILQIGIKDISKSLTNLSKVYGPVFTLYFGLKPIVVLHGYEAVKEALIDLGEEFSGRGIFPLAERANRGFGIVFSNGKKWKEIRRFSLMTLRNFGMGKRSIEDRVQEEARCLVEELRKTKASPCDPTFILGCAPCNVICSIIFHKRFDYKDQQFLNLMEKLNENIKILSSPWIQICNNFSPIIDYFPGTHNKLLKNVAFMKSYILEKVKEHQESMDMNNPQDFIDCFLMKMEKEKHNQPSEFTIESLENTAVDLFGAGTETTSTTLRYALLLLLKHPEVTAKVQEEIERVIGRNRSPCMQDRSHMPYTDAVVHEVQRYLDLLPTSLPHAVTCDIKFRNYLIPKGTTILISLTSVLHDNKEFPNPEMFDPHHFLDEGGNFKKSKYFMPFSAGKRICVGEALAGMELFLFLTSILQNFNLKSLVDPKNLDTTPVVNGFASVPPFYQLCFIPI

T1 sequence (P11712 24-490 R150H/V490I): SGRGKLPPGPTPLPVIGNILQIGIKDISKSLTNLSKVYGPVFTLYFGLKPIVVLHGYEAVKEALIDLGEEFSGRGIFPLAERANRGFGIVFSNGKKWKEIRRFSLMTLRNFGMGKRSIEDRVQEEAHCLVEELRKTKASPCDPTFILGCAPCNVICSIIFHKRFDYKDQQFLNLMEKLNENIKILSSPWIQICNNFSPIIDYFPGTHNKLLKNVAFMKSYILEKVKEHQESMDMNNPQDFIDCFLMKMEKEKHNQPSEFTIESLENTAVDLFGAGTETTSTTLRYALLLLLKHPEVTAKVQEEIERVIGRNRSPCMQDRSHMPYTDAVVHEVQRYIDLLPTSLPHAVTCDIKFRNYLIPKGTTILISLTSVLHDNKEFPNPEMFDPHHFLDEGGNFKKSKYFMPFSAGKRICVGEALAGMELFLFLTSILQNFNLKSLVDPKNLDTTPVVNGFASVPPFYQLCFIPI

`CCCCc1nc(Cl)c(CO)n1Cc1ccc(-c2ccccc2-c2nn[nH]n2)cc1` [losartan] showed a Kd [1] of 8.95 ± 0.97 µM and a Kd [2] of 24.5 ± 2.7 µM.
